The NIST ThermoML archive (doi:10.1016/j.jct.2008.06.002)
“And” between values parts separate entries of the source, which are not always exact repeats. Identical values can stand only once.

Settings: Liquid

O=C=O [carbon dioxide]
Settings	vapor or sublimation pressure [kPa]
258.44 K	2294
278.25 K	3977
298.84 K	6502.6

CC(F)F [1,1-difluoroethane]
Settings	vapor or sublimation pressure
253.68 K	115.2 kPa
258.44 K	142.2 kPa and 144 kPa
263.39 K	174.9 kPa
268.32 K	213.7 kPa
273.23 K	256.8 kPa
278.19 K	308.1 kPa
278.25 K	311.7 kPa
283.31 K	368.5 kPa
288.27 K	432.9 kPa
293.23 K	506.8 kPa
298.17 K	590.3 kPa
298.84 K	604.4 kPa
303.37 K	687.6 kPa
308.31 K	791 kPa
308.37 K	812.5 kPa
313.19 K	904.5 kPa
318.25 K	1034.8 kPa
323.26 K	1175.4 kPa
323.3 K	1185.5 kPa
328.12 K	1326.8 kPa
333.31 K	1502.3 kPa
338.19 K	1683.5 kPa
343.1 K	1879.6 kPa
343.2 K	1891.7 kPa
348.26 K	2104.6 kPa
